Patent publication US11230578B2, “Peptides and use of same in the treatment of diseases, disorders or conditions associated with a mutant P53” (Yeda Research and Development Co. Ltd., priority 2016, dated 2022)
Read-outs that look alike come from different tables or passages of the source.

Tests used:
[1] = system: ES2 cells expressing luciferase; experiment: ES2 ovarian cancer mouse xenograft model, luciferase live imaging; type: in vivo, nude mice
Procedure: 2*10^5 ES2 cells expressing luciferase were injected into the hips of nude mice. Bioluminescence was measured. […] The background threshold detection level of the IVIS system was about 5×10^6 photons. […]
Mice (6 weeks Athymic nude) were injected subcutaneously with 2×10^5-10^6 cells into each […]. All the cell lines employed in these experiments stably express a luciferase reporter gene to enable monitoring of tumor growth by live imaging. 4-18 days later, when tumors reached visible size, the mice were randomly divided into several groups: a control group, treated with either a single control peptide, and groups treated with effective peptide, either a single peptide. Peptides were administered either by intratumoral injection of 10 μg peptide per tumor in 40 μl PBS, three times a week or by Alzet mini pumps 0.8 mg for two weeks. Tumor growth over time was measured by live imaging, using the IVIS2000 system. Exposure time was calibrated to 20 seconds. 16 images were taken over 8 minutes and peak luminescence values were taken for each tumor. Experiments were conducted until tumors reached maximal allowed size of 1 cm^3, at which mice were sacrificed and tumors extracted, measured and weighed.

[2] = Pharmacokinetic study, plasma half life; type: in vivo
Description: FIGS. 4A-D show the pharmacokinetics of various modes of administration.

[3] = system: ES2 ovarian cancer cells (p53 mutant S241F); type: cell-based
Procedure: Cells were cultured in 96 wells plates with 3000 cells/well. […] Then medium was removed and cell viability was determined by staining the cells with crystal violet (0.05%) in methanol/PBS (1:5, v/v), for 10 min, followed by 3 washes with PBS. 10% acetic acid was added to each well for 10 min. OD was determined at 595 nm.
Cells, ES2 Con expressing endogenous mp53^S241F, and ES2 KO cells in which p53 was stably knocked out using CRISPR/Cas9 (ES2 p53KO), to control for specificity for mutp53 were cultured in 96 wells plates with 3000 cells/well. Indicated peptides were added at a concentration of 8 μg/ml and the plates incubated for additional 48 h at 37° C. Then medium was removed and cell viability was determined by staining the cells with crystal violet (0.05%) in methanol/PBS (1:5, v/v), for 10 min, followed by 3 washes with PBS. 10% acetic acid was added to each well for 10 min. OD was determined at 595 nm.
Cells were cultured in 96 wells plates with 3000 cells/well. Serial dilutions of different peptides were added and the plates incubated for additional 48 h at 37° C. Then the medium was removed and cell viability was determined by staining the cells with crystal violet (0.05%) in methanol/PBS (1:5, v/v), for 10 min, followed by 3 washes with PBS. 10% acetic acid was added to each well for 10 min. OD was determined at 595 nm. Results are normalized to non-treated cells 100% viability.
Cells were cultured in 96 wells plates with 2500-4000 cells/well. Serial dilutions of different peptides were added and the plates incubated for additional 48 h at 37° C. Then medium was removed and cell viability was determined by staining the cells with crystal violet (0.05%) in methanol/PBS (1:5, v/v), for 10 min, followed by 3 washes with PBS. 10% acetic acid was added to each well for 10 min. OD was determined at 595 nm.
ES2 Cells were cultured in 96 wells plates with 3000 cells/well. […] Then medium was removed and cell viability was determined by staining the cells with crystal violet (0.05%) in methanol/PBS (1:5, v/v), for 10 min, followed by 3 washes with PBS. 10% acetic acid was added to each well for 10 min. OD was determined at 595 nm.
Cells, ES2 Con expressing endogenous mp53S241F, and ES2 KO cells in which p53 was stably knocked out using CRISPR/Cas9 (ES2 p53KO), to control for specificity for mutp53 were cultured in 96 wells plates with 3000 cells/well. The indicated peptides were added at a concentration of 8 μg/ml and the plates incubated for additional 48 h at 37° C. Then medium was removed and cell viability was determined by staining the cells with crystal violet (0.05%) in methanol/PBS (1:5, v/v), for 10 min, followed by 3 washes with PBS. 10% acetic acid was added to each well for 10 min. OD was determined at 595 nm.

half-life ([2]; iv, 1 mg/kg, administered intravenously): 0.8 to 1.8 h
half-life ([2]; sc, administered subcutaneously): 3 to 8 h
IC50 ([3]; 48 h): 3.2 µM
IC50 ([3]; read-out: IC50 for pCAP-250 in combination with cisplatin, cell viability, ES2 cells, together with 1 μg/ml of cisplatin, 48 h, estimated): 1.9 µM
SMILES: CCCCCCCCCCCCCC(=O)N[C@@H](CCCNC(=N)N)C(=O)N[C@@H](CCCNC(=N)N)C(=O)N[C@@H](Cc1c[nH]cn1)C(=O)N[C@@H](CO)C(=O)N[C@H](C(=O)N1CCC[C@H]1C(=O)N[C@@H](Cc1c[nH]cn1)C(=O)N1CCC[C@H]1C(=O)N[C@@H](CC(=O)O)C(=O)O)[C@@H](C)O [pCAP-250]
effect on tumor development of ES2 cells ([1]; intratumoral injections, 0.4 mg/kg 3 times a week): significant effect
effect on tumor development of ES2 cells ([1]; subcutaneously by Alzet minipumps, 2.3 mg/kg per day): significant effect
viability of the cancer cells in the presence of peptide ([3]; ES2 cells, FIG. 1): reduced significantly
combination effect of pCAP-250 and cisplatin ([3]; ES2 cells, pCAP-250 dilutions + 1 μg/ml cisplatin, 48 h): synergistic effect
